Experimental data: patent US20230365592A1 (Agios Pharmaceuticals, Inc., priority 2022, published 2023)

What follows are compounds tested against T1, human PAH with the R408W mutation (Homo sapiens, UniProt P00439, R408W) (assay: Cell Based Phenylalanine Flux Assay). Conditions: A375 cells expressing human R408W PAH; 24 hrs compound incubation; 13C-Tyrosine by LC-MS; average where tested multiple times; read-out: AC50.
T1 construct: expressed in transfected cells
T1 sequence (P00439 1-452 R408W): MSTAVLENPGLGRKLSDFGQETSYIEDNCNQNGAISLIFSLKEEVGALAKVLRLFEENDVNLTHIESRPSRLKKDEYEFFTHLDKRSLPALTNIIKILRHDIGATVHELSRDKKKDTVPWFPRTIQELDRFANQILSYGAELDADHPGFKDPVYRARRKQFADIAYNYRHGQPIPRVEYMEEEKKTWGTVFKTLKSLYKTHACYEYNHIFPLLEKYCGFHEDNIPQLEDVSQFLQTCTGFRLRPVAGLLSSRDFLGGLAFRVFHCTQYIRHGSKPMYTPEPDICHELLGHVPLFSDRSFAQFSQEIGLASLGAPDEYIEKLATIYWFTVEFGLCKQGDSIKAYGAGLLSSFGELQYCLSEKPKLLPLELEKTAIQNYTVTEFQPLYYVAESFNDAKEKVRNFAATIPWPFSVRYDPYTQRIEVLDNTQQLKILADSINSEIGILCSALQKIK
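Note: after compound treatment, cells received sepiapterin plus isotope-labelled Phenylalanine for 4 hours, then labelled Tyrosine in the medium was quantified, 10-point 2-fold dilution series run in duplicate.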

Row | AC50 [nM] | SMILES
1 | 500 to 1000 | Fc1cccn2nc([C@@H]3c4nc[nH]c4CCN3c3nnc(C(F)F)o3)cc12 [Example 1737, (S)-2-(difluoromethyl)-5-(4-(4-fluoropyrazolo[1,5-a]pyridin-2-yl)-6,7-dihydro-1H-imidazo[4,5-c]pyridin-5(4H)-yl)-1,3,4-oxadiazole]
2 | < 500 | FC(F)c1nnc(N2CCc3[nH]cnc3[C@H]2c2cc3c(Cl)cccn3n2)o1 [Example 1739, (S)-2-(4-(4-chloropyrazolo[1,5-a]pyridin-2-yl)-6,7-dihydro-1H-imidazo[4,5-c]pyridin-5(4H)-yl)-5-(difluoromethyl)-1,3,4-oxadiazole]
3 | > 5000 | Cc1cccc2cc([C@H]3c4nc[nH]c4CCN3c3nnc(C(F)F)o3)nn12 [Example 1740, (R)-2-(difluoromethyl)-5-(4-(7-methylpyrazolo[1,5-a]pyridin-2-yl)-6,7-dihydro-1H-imidazo[4,5-c]pyridin-5(4H)-yl)-1,3,4-oxadiazole]
4 | 500 to 1000 | Cc1cccc2cc([C@@H]3c4nc[nH]c4CCN3c3nnc(C(F)F)o3)nn12 [Example 1741, (S)-2-(difluoromethyl)-5-(4-(7-methylpyrazolo[1,5-a]pyridin-2-yl)-6,7-dihydro-1H-imidazo[4,5-c]pyridin-5(4H)-yl)-1,3,4-oxadiazole]
5 | < 500 | O=C(c1cnn2cc(C3CC3)ccc12)N1CCc2[nH]cnc2[C@H]1c1cc2c(C(F)F)cccn2n1 [Example 1742, (S)-(6-cyclopropylpyrazolo[1,5-a]pyridin-3-yl)(4-(4-(difluoromethyl)pyrazolo[1,5-a]pyridin-2-yl)-6,7-dihydro-1H-imidazo[4,5-c]pyridin-5(4H)-yl)methanone]
6 | 1000 to 5000 | O=C(c1cnn2cc(C3CC3)ccc12)N1CCc2[nH]cnc2[C@@H]1c1cc2c(C(F)F)cccn2n1 [Example 1743, (R)-(6-cyclopropylpyrazolo[1,5-a]pyridin-3-yl)(4-(4-(difluoromethyl)pyrazolo[1,5-a]pyridin-2-yl)-6,7-dihydro-1H-imidazo[4,5-c]pyridin-5(4H)-yl)methanone]
7 | 1000 to 5000 | O=C(c1cnn2cc(C3CC3)ccc12)N1CCc2[nH]cnc2[C@H]1c1cc2cccc(Cl)n2n1 [Example 1744, (S)-(4-(7-chloropyrazolo[1,5-a]pyridin-2-yl)-6,7-dihydro-1H-imidazo[4,5-c]pyridin-5(4H)-yl)(6-cyclopropylpyrazolo[1,5-a]pyridin-3-yl)methanone]
8 | > 5000 | O=C(c1cnn2cc(C3CC3)ccc12)N1CCc2[nH]cnc2[C@@H]1c1cc2cccc(Cl)n2n1 [Example 1745, (R)-(4-(7-chloropyrazolo[1,5-a]pyridin-2-yl)-6,7-dihydro-1H-imidazo[4,5-c]pyridin-5(4H)-yl)(6-cyclopropylpyrazolo[1,5-a]pyridin-3-yl)methanone]
9 | > 5000 | CN(C)c1ccc2c(C(=O)N3CCc4[nH]cnc4[C@@H]3c3cc4c(C(F)(F)F)cccn4n3)cnn2c1 [Example 1747, (R)-(6-(dimethylamino)pyrazolo[1,5-a]pyridin-3-yl)(4-(4-(trifluoromethyl)pyrazolo[1,5-a]pyridin-2-yl)-6,7-dihydro-1H-imidazo[4,5-c]pyridin-5(4H)-yl)methanone]
10 | < 500 | FC(F)(F)c1cnc(N2CCc3[nH]cnc3[C@H]2c2cc3ccccn3n2)nc1 [Example 1752, (S)-4-(pyrazolo[1,5-a]pyridin-2-yl)-5-(5-(trifluoromethyl)pyrimidin-2-yl)-4,5,6,7-tetrahydro-1H-imidazo[4,5-c]pyridine]
11 | < 500 | Cc1cccn2nc([C@@H]3c4nc[nH]c4CCN3c3ncc(C(F)(F)F)cn3)cc12 [Example 1754, (S)-4-(4-methylpyrazolo[1,5-a]pyridin-2-yl)-5-(5-(trifluoromethyl)pyrimidin-2-yl)-4,5,6,7-tetrahydro-1H-imidazo[4,5-c]pyridine]
12 | > 5000 | Cc1cccn2nc([C@H]3c4nc[nH]c4CCN3c3ncc(C(F)(F)F)cn3)cc12 [Example 1755, (R)-4-(4-methylpyrazolo[1,5-a]pyridin-2-yl)-5-(5-(trifluoromethyl)pyrimidin-2-yl)-4,5,6,7-tetrahydro-1H-imidazo[4,5-c]pyridine]
